# What was measured:
# Assay type in all cases: in vivo
# pyricularia oryzae = conditions: 16 ppm, rice seedlings cv. Tai-Nong 67, inoculated the next day, assessed after 6 days; untreated control 85%
# Plasmopara viticola = assay: Long-term activity against Plasmopara viticola on grapevines; conditions: 16 ppm, grapevines cv. Müller-Thurgau, inoculated 7 days after spraying; untreated control 75%
# Text: 2) Long-term Activity Against Plasmopara viticola Leaves of potted grapevines cv. “Müller-Thurgau” were sprayed to runoff point with an aqueous active compound preparation which had been prepared from a stock solution comprising 10% of active compound, 63% of cyclohexanone and 27% of emulsifier. To assess the persistency of the substances, the plants were kept for 7 days in a greenhouse after the spray coating had dried on. Only then were the leaves inoculated with an aqueous zoospore suspension of Plasmopara viticola. The grapevines were then initially kept in a water vapor-saturated chamber at 24° C. for 48 hours and then in a greenhouse at 20-30° C. for 5 days. After this period of time, the plants were once more kept in a humid chamber for 16 hours to promote sporangiophore eruption. The extent of the infection on the undersides of the leaves was then assessed visually.
# [1] = test system: Erysiphe graminis forma specialis tritici; assay: Protective activity against Erysiphe graminis var. tritici (powdery mildew of wheat); conditions: 16 ppm, sprayed 24 h before inoculation, seedlings cv. Frühgold, assessed after 7 days; untreated control 80%
# Description: 1) Protective Activity Against Erysiphe graminis var. tritici (Powdery Mildew of Wheat) Leaves of potted […] seedlings cv. “Frühgold” were sprayed to runoff point with an aqueous active compound preparation which had been prepared from a stock solution comprising 10% of active compound, 63% of cyclohexanone and 27% of emulsifier, and, 24 hours after the spray coating had dried on, dusted with spores of powdery mildew of wheat (Erysiphe graminis forma specialis tritici). The test plants were subsequently placed in a greenhouse at from 20 to 22° C. and a relative atmospheric humidity of 75 to 80%. After 7 days, the extent of mildew development was determined visually as % infection of the total leaf area.
compound,measurement,setting,value
"CO/C=C(/C(=O)OC)c1cccnc1Oc1ccn(-c2ccc(Cl)cc2)n1 [I.3, Methyl methoxy-[2-(1-(4-chlorophenyl)-3-pyrazolyloxy)pyridin-3-yl]acrylate]",infestation on the leaves,pyricularia oryzae,15%
same,infection on the undersides of the leaves,Plasmopara viticola,no infestation
same,infection (mildew development as % infection of the total leaf area),[1],5%

# Source: patent publication US6362192B1, “2-(Pyrazolyloxy) -pyridin-3-ylacetic acid derivatives, agents containing the same and use thereof against noxious fungi and animal parasites” (BASF Aktiengesellschaft, priority 1998, dated 2002)
